ChEMBL document CHEMBL1140501, “Validation of an automated procedure for the prediction of relative free energies of binding on a set of aldose reductase inhibitors” (Bioorg Med Chem, 2007)

Target: Aldo-keto reductase family 1 member B1 (Homo sapiens, UniProt P15121)
Experiment: Inhibition of aldose reductase

SMILES | IC50 [µM]
O=C1C[C@@]2(C(=O)N1)C(=O)N(Cc1ccc(Br)cc1F)C(=O)c1cccn12 | 0.015
O=C(O)Cn1c(=O)n(Cc2ccc(Br)cc2F)c(=O)c2ccc(Cl)cc21 [ZENARESTAT] | 0.044
O=C(O)Cc1c(Cl)cccc1Cl | 4.4
O=C(O)Cc1ccccc1 [PHENYLACETIC ACID] | 96
O=C(O)COc1cc(F)ccc1C(=S)NCc1ccc(Br)cc1F | 0.03
O=C(O)Cc1nn(Cc2ccc(Br)cc2F)c(=O)c2ccccc12 [PONALRESTAT] | 0.0565
Cc1ccccc1CC(=O)Nc1cc(C)c(S(=O)(=O)NCC(=O)O)c(C)c1 | 0.108
O=C(O)Cc1nn(Cc2nc3ccc(C(F)(F)F)cc3s2)c(=O)c2ccccc12 | 0.0031
O=C(O)COc1ccccc1C(=O)NCc1ccc(Br)cc1F | 0.176
O=C1C[C@]2(C(=O)N1)C(=O)N(Cc1ccc(Br)cc1F)C(=O)c1cccn12 | 0.19
